The values that follow come from article PMC9750872, “Ras-mutant cancers are sensitive to small molecule inhibition of V-type ATPases in mice” (Nature biotechnology, 2022).

One data set has as its system MEFs bearing KRASG12V. As to the kind of experiment: Macropinocytosis, TMR-dextran uptake. The settings on record: Mus musculus; 2 μM 249C 18 h, DMSO = 100%; read-out: inhibition of MP. The data set is classed as cell-based. The protocol:
(§1) Macropinosome visualization was essentially done as previously described. Cells were plated in black, clear bottom CellCarrier-96 Ultra Microplates (PerkinElmer 6055302) and serum-starved for 24 h. The next day, they were treated with 2 μM 249C (1255) for 18 h followed by addition of 70 kDa TMR-Dextran (Invitrogen D1818) and Hoescht for 2 hours at 37 °C prior to 3 × cold PBS washes and fixation in 4% paraformaldehyde for 30 min. Following 3 × cold PBS washes, mounting medium (Vector Laboratories Inc.) was added and images were captured using an Operetta CLS™ fluorescent microscope for High-Content Analysis (PerkinElmer). Image analysis and quantification was performed with a spot segmentation algorithm using the Perkin Elmer Harmony® PhenoLOGIC™ 3.2 software. Briefly, the images were segmented and individual nuclei (DAPI stained) and cell bodies (by digital phase contrast imaging) were identified. The TMR signal was used for the spot segmentation analysis block. […] Data are presented as spots - number of objects per nucleus. For each cell line, 5 DMSO control and 5 249C-treated wells were imaged and a minimum of 3 images were captured per well. Data representing three independent experiments are presented.

The test system of another data set is MEFs bearing KRASG13D. Nature of the data set: Macropinocytosis, TMR-dextran uptake. The settings on record: Mus musculus; 2 μM 249C 18 h, DMSO = 100%; read-out: inhibition of MP. The data set is classed as cell-based. The procedure: as §1
A further data set concerns MEFs bearing BRAFV600E. Nature of the data set: Macropinocytosis, TMR-dextran uptake. The data set is classed as cell-based. The settings on record: Mus musculus; 2 μM 249C 18 h, DMSO = 100%; read-out: inhibition of MP. The procedure:
as §1

The subject of the next data set is MEFs KRAS Q61L. As to the kind of experiment: Cell proliferation of Ras-less MEFs expressing human KRAS/BRAF. The settings on record: Mus musculus.
The subject of data set [1] is MelJuso (HRASG13D and NRASQ61L). As to the kind of experiment: Cell viability screen, CellTiter-Glo, 72 h. The data set is classed as cell-based, human. The following applies: ATP content/viability. The protocol: Figure 1: Optimization of Potency and Drug Properties of Small Molecule Inhibitors of Ras- and Raf-mutant Cells using Viability Screens. (A) Cell viability screen of ~300 small molecules in A549 (KRASG12S), LOX IMVI (BRAFV600E), and MelJuso (HRASG13D and NRASQ61L). Cells were treated with vehicle DMSO or increasing concentrations of small molecules in triplicate for 72 h and ATP content/viability was measured using CellTiter-Glo Luminescent Cell Viability Assay. The results shown for all cell viability figures are representative of at least two independent experiments. […] (C) Evolution of the Structure Activity Relationship (SAR) and IC50s of the first (68) and last (249C | lead due to drug-like properties) compounds in the screen. (D) 249C sensitivity for a panel of 53 cancer cell lines (including lung, pancreatic, breast, ovarian, hematological/liver, prostate, colorectal cancers, glioma and melanoma). […] (F) Quantitative whole proteome analysis of the effects of small molecule treatment by mass spectrometry. A549 cells were treated with DMSO or 68 (30 μM), 226C (1μM) or 249C (1μM) for 48 h prior to analysis of proteomes with TMT labeling followed by quantification relative to the DMSO control. […]

A further data set relates to MEFs BRAFV600E. Nature of the data set: Cell proliferation of Ras-less MEFs expressing human KRAS/BRAF. The settings on record: Mus musculus.
A further data set has as its system MEFs KRAS G12C. Described as above. The settings on record: Mus musculus.
Data set [2] can be described thus: Plasma concentration in mice. Type of data set: in vivo. The settings on record: female, athymic nude (NU/NU, Charles River strain # 088), mouse, intraperitoneal, 10 mg/kg, after 4 hours, read-out: maximum concentration (Cmax) in blood (or plasma). The procedure:
5 × 10^6 A549 cells were subcutaneously injected into the lower left flank of 6–8-week old athymic nude female mice (Charles River strain # 088, homozygous NU/NU). To assess establishment of tumors, mice were examined 5 days post-inoculation and were randomly segregated into two treatment groups [vehicle control, 10 mg/kg 249C IP, n = 7 per group] and were treated twice daily with the drug in NPM or vehicle control (5% weight aqueous solution of carboxymethyl cellulose). Tumor volumes were calculated using the formula (L × W × H)/2 with recorded caliper measurements. Survival curves and statistical analyses were performed using Excel. Animals were maintained on a standard chow diet; 12:12 dark/light cycle and in group housing in hepa-filtered cages. All animal procedures were performed under IACUC approved protocols and guidelines. Animals from both groups were weighed every 3 days. Plasma concentration was measured from blood collected using standard and established protocols.

Description for MEFs BRAFV600E: Cell proliferation assays of stable cell lines treated with V-ATPase inhibitors 249C and BafA1, HCQ analog (DC661), KRASG12C inhibitor (AMG510) and autophagy inducer (CMA). For each bar, n = 3. Representative of 3 biological replicates (mean ± SD). Two-sided t-test with no adjustments for multiple comparisons.
(§2) Logarithmically growing cells were plated in antibiotic-free medium supplemented with 2% fetal bovine serum at a density of 5,000 cells per well. The next day, cells were treated in triplicates with increasing doses of in-house small molecule inhibitor drugs and a DMSO vehicle control for 3 days and subsequently assessed for cell viability by measurement of ATP with CellTiter-Glo Luminescent Cell Viability Assay (Promega). Signal intensity was read on a Glomax™ 96 Microplate Luminometer (Promega) with GLOMAX software (version 1.9.3) and percent cell survival was calculated based on the reading of vehicle control cells set as 100% using Excel (2012) and GraphPad Prism (version 6)Each compound was tested a minimum of 2 times with n = 3. All cell proliferation assays (cancer cell lines or MEFs) were done in a similar way.
Description for MEFs KRAS G12C: as §2
Description for MEFs KRAS Q61L: as §2

`CN1CCOC(CNC(=O)C2(C)C(c3ccc(Cl)o3)C(c3ccc(F)cc3F)=NN2c2ccc(F)cc2F)C1` (stereo not drawn) [Compound 249C]: the inhibition at 2 µM in the data set on MEFs bearing KRASG12V stood at 73%; in the data set on MEFs bearing KRASG13D, 94%; with MEFs bearing BRAFV600E it was 90%. Also, the 50% inhibitory concentration (IC50) is 310 nM in the data set on MEFs KRAS Q61L; 21.9 nM in data set [1] (listed as 002-249C); 22 nM in data set [1] (Homo sapiens, MEL-JUSO); 110 nM in the data set on MEFs BRAFV600E; 440 nM with MEFs KRAS G12C. The Cmax in data set [2] is 20 µM.
